Results as given in ChEMBL document CHEMBL5291721, “A preclinical secondary pharmacology resource illuminates target-adverse drug reaction associations of marketed drugs” (Nat Commun, 2023).

Key:
[1] = target: T1, Equilibrative nucleoside transporter 1 (Homo sapiens, UniProt Q99808)
T1 sequence (Q99808 whole entry): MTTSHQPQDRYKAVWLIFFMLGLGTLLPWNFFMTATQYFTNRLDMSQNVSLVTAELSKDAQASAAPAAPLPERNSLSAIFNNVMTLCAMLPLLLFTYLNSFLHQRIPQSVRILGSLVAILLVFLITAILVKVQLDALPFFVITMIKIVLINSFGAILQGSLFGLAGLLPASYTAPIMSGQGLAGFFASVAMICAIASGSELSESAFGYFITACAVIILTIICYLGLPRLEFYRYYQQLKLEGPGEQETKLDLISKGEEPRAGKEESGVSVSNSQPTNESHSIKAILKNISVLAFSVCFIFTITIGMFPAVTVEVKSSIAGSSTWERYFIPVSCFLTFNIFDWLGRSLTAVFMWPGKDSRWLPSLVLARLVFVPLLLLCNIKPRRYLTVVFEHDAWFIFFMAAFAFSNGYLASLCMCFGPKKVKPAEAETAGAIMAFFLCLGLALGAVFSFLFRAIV

Histamine H2 receptor = Histamine H2 receptor (Homo sapiens, UniProt P25021); assay type: functional, cell-based
Cannabinoid receptor 1 = Cannabinoid receptor 1 (Homo sapiens, UniProt P21554); assay type: functional, cell-based
B2 bradykinin receptor = target: T2, B2 bradykinin receptor (Homo sapiens, UniProt P30411)
T2 sequence (P30411 whole entry): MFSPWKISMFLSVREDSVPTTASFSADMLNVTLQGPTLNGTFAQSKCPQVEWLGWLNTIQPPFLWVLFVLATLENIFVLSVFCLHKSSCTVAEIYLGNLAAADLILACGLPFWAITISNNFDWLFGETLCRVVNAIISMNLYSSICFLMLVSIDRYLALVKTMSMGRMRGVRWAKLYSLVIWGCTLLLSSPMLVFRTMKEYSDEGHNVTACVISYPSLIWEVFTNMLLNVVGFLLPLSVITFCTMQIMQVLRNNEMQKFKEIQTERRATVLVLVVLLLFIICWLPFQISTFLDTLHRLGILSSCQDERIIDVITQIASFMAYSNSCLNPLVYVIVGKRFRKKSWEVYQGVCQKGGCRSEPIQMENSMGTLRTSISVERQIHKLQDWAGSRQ

[2] = target: T3, 5-hydroxytryptamine receptor 1A (Homo sapiens, UniProt P08908); assay type: functional, cell-based
T3 sequence (P08908 whole entry): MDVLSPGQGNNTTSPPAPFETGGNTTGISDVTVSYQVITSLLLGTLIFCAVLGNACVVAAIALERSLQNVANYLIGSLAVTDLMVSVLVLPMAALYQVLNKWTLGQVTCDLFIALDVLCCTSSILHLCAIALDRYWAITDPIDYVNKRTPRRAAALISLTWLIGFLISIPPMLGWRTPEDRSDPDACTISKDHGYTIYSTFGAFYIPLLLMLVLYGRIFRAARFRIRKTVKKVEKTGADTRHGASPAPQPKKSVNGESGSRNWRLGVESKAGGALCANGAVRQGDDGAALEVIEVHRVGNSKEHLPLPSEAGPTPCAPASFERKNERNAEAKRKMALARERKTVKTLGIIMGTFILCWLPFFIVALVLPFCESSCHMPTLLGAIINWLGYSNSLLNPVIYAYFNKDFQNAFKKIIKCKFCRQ

Mu-type opioid receptor = Mu-type opioid receptor (Homo sapiens, UniProt P35372); test: biochemical; assay type: functional
[3] = target: T4, Alpha-2A adrenergic receptor (Homo sapiens, UniProt P08913); assay type: functional, cell-based
T4 sequence (P08913 whole entry): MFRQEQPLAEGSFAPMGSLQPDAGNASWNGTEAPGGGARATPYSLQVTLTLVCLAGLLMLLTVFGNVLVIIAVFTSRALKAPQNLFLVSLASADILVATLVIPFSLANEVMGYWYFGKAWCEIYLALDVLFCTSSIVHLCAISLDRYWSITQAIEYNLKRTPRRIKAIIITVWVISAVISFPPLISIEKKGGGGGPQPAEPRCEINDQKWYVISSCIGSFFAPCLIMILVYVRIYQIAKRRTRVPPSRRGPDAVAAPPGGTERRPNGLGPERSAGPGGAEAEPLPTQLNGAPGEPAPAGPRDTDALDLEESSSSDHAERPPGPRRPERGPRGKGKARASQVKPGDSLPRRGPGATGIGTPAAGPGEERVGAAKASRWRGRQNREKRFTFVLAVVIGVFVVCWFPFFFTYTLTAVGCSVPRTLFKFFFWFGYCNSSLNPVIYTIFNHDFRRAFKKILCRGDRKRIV

Histamine H3 receptor = Histamine H3 receptor (Homo sapiens, UniProt Q9Y5N1)
[4] = target: T5, Amine oxidase [flavin-containing] A (Homo sapiens, UniProt P21397); assay type: functional
T5 sequence (P21397 whole entry): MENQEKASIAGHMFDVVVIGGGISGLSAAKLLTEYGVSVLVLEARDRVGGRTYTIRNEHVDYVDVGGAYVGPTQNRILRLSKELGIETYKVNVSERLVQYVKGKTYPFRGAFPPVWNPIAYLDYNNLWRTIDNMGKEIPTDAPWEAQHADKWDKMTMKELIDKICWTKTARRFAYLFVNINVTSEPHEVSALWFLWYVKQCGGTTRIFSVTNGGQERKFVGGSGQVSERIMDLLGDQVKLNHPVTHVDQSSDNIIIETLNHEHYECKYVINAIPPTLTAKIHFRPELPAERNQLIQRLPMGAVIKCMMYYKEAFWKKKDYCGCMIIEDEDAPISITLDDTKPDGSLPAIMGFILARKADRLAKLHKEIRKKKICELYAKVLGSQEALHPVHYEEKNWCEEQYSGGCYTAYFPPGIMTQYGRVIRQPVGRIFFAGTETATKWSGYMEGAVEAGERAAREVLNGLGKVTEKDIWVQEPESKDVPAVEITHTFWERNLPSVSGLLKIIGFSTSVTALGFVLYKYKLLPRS

[5] = target: T3, 5-hydroxytryptamine receptor 1A; assay type: functional, cell-based; remark: listed apart in the source
Thromboxane A2 receptor = target: T6, Thromboxane A2 receptor (Homo sapiens, UniProt P21731)
T6 sequence (P21731 whole entry): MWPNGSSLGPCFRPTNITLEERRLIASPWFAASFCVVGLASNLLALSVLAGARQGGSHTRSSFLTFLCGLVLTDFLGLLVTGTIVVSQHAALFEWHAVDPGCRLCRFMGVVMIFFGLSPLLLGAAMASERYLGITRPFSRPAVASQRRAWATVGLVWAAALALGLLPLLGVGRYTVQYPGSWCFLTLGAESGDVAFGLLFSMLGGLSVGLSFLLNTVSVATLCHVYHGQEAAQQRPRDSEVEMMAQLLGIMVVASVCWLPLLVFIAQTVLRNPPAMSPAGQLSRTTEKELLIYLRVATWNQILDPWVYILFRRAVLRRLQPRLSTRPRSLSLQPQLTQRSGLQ
Further: assay procedure not described here.

Chain of Mu-type opioid receptor (P35372 whole entry): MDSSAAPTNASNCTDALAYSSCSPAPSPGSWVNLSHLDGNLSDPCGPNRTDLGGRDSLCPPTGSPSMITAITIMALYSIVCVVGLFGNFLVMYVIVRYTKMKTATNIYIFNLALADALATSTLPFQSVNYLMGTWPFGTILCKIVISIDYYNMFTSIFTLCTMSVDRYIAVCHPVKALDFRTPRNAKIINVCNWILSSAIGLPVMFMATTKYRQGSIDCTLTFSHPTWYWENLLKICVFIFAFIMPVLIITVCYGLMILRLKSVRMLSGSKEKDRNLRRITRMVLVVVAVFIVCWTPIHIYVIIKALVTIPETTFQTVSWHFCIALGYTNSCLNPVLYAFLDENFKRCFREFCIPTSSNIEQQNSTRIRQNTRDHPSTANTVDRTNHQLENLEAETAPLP
Chain of Histamine H3 receptor (Q9Y5N1 whole entry): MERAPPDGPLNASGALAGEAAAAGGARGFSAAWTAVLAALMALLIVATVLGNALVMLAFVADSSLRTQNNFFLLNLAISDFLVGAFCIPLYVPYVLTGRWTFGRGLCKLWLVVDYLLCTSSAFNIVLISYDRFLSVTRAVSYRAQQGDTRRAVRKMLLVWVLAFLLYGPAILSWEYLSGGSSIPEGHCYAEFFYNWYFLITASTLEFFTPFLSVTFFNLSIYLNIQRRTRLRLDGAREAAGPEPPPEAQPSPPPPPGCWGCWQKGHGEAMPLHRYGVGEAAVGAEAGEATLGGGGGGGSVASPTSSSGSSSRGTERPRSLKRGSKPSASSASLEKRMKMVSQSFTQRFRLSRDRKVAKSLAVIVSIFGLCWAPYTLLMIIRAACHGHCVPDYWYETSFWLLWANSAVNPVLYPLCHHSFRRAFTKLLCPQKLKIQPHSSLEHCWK
Chain of Histamine H2 receptor (P25021 whole entry): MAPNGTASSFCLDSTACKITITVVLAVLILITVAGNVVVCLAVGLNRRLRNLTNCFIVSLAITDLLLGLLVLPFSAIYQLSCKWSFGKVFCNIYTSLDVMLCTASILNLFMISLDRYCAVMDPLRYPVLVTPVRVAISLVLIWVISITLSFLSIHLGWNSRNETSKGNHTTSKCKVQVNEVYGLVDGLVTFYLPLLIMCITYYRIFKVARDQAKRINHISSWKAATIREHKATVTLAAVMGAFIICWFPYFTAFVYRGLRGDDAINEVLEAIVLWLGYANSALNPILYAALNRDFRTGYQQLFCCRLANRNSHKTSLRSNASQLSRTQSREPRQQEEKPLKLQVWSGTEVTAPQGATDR
Chain of Cannabinoid receptor 1 (P21554 whole entry): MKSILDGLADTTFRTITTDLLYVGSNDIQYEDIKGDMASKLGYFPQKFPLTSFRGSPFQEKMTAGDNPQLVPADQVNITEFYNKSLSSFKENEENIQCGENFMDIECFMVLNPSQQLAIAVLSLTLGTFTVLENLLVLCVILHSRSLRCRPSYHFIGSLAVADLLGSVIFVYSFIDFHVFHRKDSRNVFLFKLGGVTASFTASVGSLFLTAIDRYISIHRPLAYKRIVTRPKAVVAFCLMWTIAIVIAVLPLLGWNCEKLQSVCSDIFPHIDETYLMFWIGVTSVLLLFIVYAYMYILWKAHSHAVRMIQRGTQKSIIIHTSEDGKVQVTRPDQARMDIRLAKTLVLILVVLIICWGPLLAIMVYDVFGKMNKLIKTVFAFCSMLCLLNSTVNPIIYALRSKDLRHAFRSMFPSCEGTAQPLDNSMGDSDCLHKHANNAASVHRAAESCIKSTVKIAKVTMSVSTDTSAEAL

SMILES | AC50 [1] [µM] | AC50 (Histamine H2 receptor) [µM] | AC50 (Cannabinoid receptor 1) [µM] | AC50 (B2 bradykinin receptor) [µM] | AC50 [2] [µM] | AC50 (Mu-type opioid receptor) [µM] | AC50 [3] [µM] | AC50 (Histamine H3 receptor) [µM] | AC50 [4] [µM] | AC50 [5] [µM] | AC50 (Thromboxane A2 receptor) [µM]
CO/N=C(\C(=O)N[C@@H]1C(=O)N2C(C(=O)O)=C(CSc3nnnn3C)CS[C@H]12)c1csc(N)n1 [CEFMENOXIME] | > 30 | > 30 | > 30 | > 30 | > 30 | > 30 | > 30 | > 30 | > 30 |  | 
Cc1cc(O)c(C(=O)N[C@@H](C(=O)N[C@@H]2C(=O)N3C(C(=O)O)=C(CSc4nnnn4C)CS[C@H]23)c2ccc(O)cc2)cn1 [CEFPIRAMIDE] | > 30 | > 30 |  | > 30 | > 30 | > 30 | > 30 | > 30 | > 30 | > 30 | > 30
Nc1nc(/C(=C/CC(=O)O)C(=O)N[C@@H]2C(=O)N3C(C(=O)O)=CCS[C@H]23)cs1 [CEFTIBUTEN] | > 30 | > 30 |  | > 30 | > 30 | > 30 | > 30 | > 30 | > 30 | > 30 | > 30
Cc1cccc(C(C)c2cnc[nH]2)c1C (stereo unspecified) [MEDETOMIDINE] | > 30 | > 30 |  | > 30 | > 30 | > 30 |  | > 30 | > 30 | > 30 | > 30
C[C@H](N)[C@H](O)c1cccc(O)c1 [METARAMINOL] | > 10 | > 30 |  | > 10 | > 10 | > 30 | > 10 |  | > 10 | > 10 | > 10
C[C@](N)(Cc1ccc(O)c(O)c1)C(=O)O [METHYLDOPA] | > 10 | > 30 |  | > 10 | > 10 | > 30 | > 10 |  | > 10 | > 10 | > 10
CCCC(C)C1(CC)C(=O)NC(=O)NC1=O (stereo unspecified) [PENTOBARBITAL] | > 10 | > 30 |  | > 10 | > 10 | > 30 | > 10 |  | > 30 | > 10 | > 10
CCCN(CCC)C(=O)C(CCC(=O)O)NC(=O)c1ccccc1 (stereo unspecified) [PROGLUMIDE] | > 30 | > 30 |  | > 30 | > 10 | > 30 | > 10 | > 30 | > 30 | > 10 | > 30
C#C[C@]1(O)CC[C@H]2[C@@H]3CCc4cc(OC5CCCC5)ccc4[C@H]3CC[C@@]21C [QUINESTROL] | > 10 | > 10 |  | > 10 | > 10 | > 30 | > 10 |  | > 10 | > 10 | > 10
COC(=O)[C@H]1[C@H]2C[C@@H]3c4[nH]c5cc(OC)ccc5c4CCN3C[C@H]2C[C@@H](OC(=O)/C=C/c2cc(OC)c(OC)c(OC)c2)[C@@H]1OC [RESCINNAMINE] | > 30 | > 30 |  | > 10 | > 10 | > 30 | > 10 |  | > 10 | > 10 | > 10
C[C@]12CC[C@H]3[C@@H](CCC4=CC(=O)CC[C@@]43C)[C@@H]1CC[C@@H]2O [TESTOSTERONE] | > 10 | > 30 |  | > 10 | > 10 | > 30 | > 10 |  | > 10 | > 10 | > 10
C[C@H](CSC(=O)c1ccccc1)C(=O)N1C[C@@H](Sc2ccccc2)C[C@H]1C(=O)O [ZOFENOPRIL] | > 10 | > 10 |  | > 10 | > 10 | > 30 | > 10 |  | > 10 | > 10 | > 10
